According to patent US20050042283A1, “Histamine and CCK2/gastrin receptor blockade in the treatment of acid-peptic disease and cancer” (UNIVERSITY OF MASSACHUSETTS, priority 2003, published 2005):
“Also recorded” adds a separate entry of the source.

Legend:
IFN-gamma = test: Real-time RT-PCR of cytokine expression: IFN-gamma; assay type: in vivo; details: 6 months, versus untreated mice
Procedure: (§1) Real-time RT-PCR assay of growth factors and cytokine expression profiles Total RNAs were extracted from a sample of whole stomach from each animal with Trizol (Invitrogen, Calif.) and five micrograms of total RNA were used for first strand cDNA synthesis using Superscript II cDNA amplification System (Invitrogen, Calif.) following manufacturer's instructions. Real-time PCR was performed as above using RT-PCR primers for each gene as listed below. All primers were designed using Lasergene ver5.0 software (DNASTAR inc., Madison, Wis.). Results were calculated by minus delta delta threshold cycle (-ΔΔCt) method (Livak, K. J. et al., 2001). Briefly, the threshold cycle Ct1 of each sample reaction was deducted from the threshold cycle Ct2 of GAPDH reaction for normalization, and then deducted from the threshold cycle Ct3 of calibration control (45 cycles in this experiment), i.e., the final result was represented by the formula; Ct3-(Ct1-Ct2). […]

[1] = system: COOH-terminally amidated gastrin; test: Gastrin radioimmunoassay (serum amidated gastrin); assay type: in vivo, mice; details: 6 months treatment
Procedure: Plasma gastrin levels (COOH-terminally amidated gastrin) were determined by radioimmunoassay using rabbit antiserum L2 that reacts similarly with G17 and […]. Real-time PCR Assay of Helicobacter felis infection in mouse stomachs and RT-PCR assay of growth factors and cytokine expression profiles H.felis DNA present in infected mouse stomachs was quantified using a modification of a previously described realtime PCR assay that accurately quantified H. pylori (Ge, Z. et al., 2001). Two primers (forward: 5′-[…] -3′ (SEQ ID NO:1); reverse: 5′-[…]-3′(SEQ ID NO:2) were designed to hybridize within the conserved region of the single copy H. felis flaB gene locus. No products were amplified from DNA isolated from H. pylori, H. mustelae, or H. bizzozeroni, confirming the specificity of these oligonucleotides for H. felis. DNA from plate-grown H. felis and from mouse gastric corpus was prepared using a high pure PCR kit (Roche Molecular Biochemicals, Indianapolis, IN). Real-time PCR was performed using SmartCycler (Cepheid, Calif.) and Quantitect SYBR Green PCR kit (QIAGEN Inc., Valencia, Calif.) following the manufacturer's instructions. Briefly, the PCR assay was performed under the following conditions: 95° C. for 15 minutes followed by 45 cycles of 95° C. for 15 seconds, 55° C. for 30 seconds and 72° C. for 30 seconds. […]

IL-4 = test: Real-time RT-PCR of cytokine expression: IL-4; assay type: in vivo; details: 6 months; versus untreated mice; listed as loxtidine alone
Procedure: as §1

1-methyl-5-((3-(3-(1-piperidinylmethyl)phenoxy)propyl)amino)-1H-1,2,4-triazole-3-ethanol [Loxtidine]
IFN-gamma expression level (IFN-gamma; listed as Loxtidine alone): significantly lower level
IFN-gamma expression level (IFN-gamma; listed as loxtidine alone): significantly down-regulated
Serum amidated gastrin levels compared with untreated mice [1]: no significant, but in a higher tendency
Serum amidated gastrin levels compared with untreated mice ([1]; listed as loxtidine alone): tendency toward higher gastrins that was not significant
IL-4 expression level (IL-4): large and significant increase; also recorded: significantly higher level
